Experiments:
[1] = target: T1, Orexin/Hypocretin receptor type 1 (Homo sapiens, UniProt O43613); format: functional, cell-based, RBL-2H3
T1 sequence (O43613 whole entry): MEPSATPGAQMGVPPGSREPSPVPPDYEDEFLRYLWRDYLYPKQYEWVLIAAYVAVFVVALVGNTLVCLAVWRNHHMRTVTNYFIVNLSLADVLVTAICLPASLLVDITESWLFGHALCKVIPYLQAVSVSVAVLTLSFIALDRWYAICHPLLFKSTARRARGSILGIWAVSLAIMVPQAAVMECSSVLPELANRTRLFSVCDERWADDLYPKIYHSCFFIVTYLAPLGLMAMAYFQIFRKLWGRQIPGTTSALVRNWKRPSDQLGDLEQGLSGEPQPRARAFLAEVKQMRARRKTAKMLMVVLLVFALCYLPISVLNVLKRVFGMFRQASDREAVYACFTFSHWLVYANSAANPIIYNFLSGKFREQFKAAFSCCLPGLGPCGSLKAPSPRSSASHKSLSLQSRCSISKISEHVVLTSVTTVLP

[2] = target: T2, Orexin receptor type 2 (Homo sapiens, UniProt O43614); format: functional, cell-based, RBL-2H3
T2 sequence (O43614 whole entry): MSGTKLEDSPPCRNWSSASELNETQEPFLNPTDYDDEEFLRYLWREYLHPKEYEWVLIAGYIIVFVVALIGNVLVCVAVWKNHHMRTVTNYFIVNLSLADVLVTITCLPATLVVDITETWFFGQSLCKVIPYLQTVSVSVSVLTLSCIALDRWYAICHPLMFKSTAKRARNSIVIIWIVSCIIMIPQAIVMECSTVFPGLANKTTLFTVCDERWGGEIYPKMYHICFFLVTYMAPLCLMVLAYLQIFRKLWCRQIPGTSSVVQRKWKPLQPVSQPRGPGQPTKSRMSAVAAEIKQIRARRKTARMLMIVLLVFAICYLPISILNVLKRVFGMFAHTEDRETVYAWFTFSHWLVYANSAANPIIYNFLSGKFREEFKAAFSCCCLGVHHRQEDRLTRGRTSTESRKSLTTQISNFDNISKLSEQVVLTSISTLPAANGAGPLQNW

| IC50 [1] [nM] | IC50 [2] [nM] | SMILES |
| --- | --- | --- |
| 367 | > 10000 | COc1cccc(Br)c1C(=O)N[C@H]1CCC[C@@H]1Nc1cnc(C(F)(F)F)cn1 |
| 270 | > 10000 | Cc1ccc(-n2nccn2)c(C(=O)N[C@H]2CCC[C@@H]2Nc2ccc(Cl)cn2)c1 |
| 406 | > 10000 | O=C(N[C@H]1CCC[C@@H]1Nc1ccc(OC(F)(F)F)cn1)c1cc(Cl)ccc1-n1nccn1 |
